US20230293407A1, “Compositions Comprising (Bio)-Alkanediols with Antimicrobials for Product Protection” (Symrise AG, priority 2020, published 2023)
One block for each compound: values may come before it.

Columns and labels:
[1] = maximum water solubility of alkanediols, visual observation; type: physicochemical; settings: ambient temperature after 24 h storage at 5° C.
Text: The water solubility of a substance is the saturation mass concentration of the substance in water at a given temperature. The determination of the solubility in water relates to essentially pure substances which are stable in water and not volatile. The determination of the water solubility of the alkanediols is further described in the following Example 2.
For the determination of the maximum water solubility of an alkanediol, water and different concentrations of the respective alkanediol were blended by stirring. […] The determination of whether the alkanediol has dissolved in water is based entirely on visual observation.

Pseudomonas aeruginosa = test: preservation efficacy test (PET), European Pharmacopoeia 5.1.3; type: cell-based; settings: for PA germ count, 2 days / PA germ count, 7 days / PA germ count, 14 days / PA germ count, 28 days: substance at given % in test formulation
Staphylococcus aureus = test: as above; type: cell-based
Escherichia coli = test: as above; type: cell-based; settings: for number of microorganisms, 7 days / number of microorganisms, 14 days / number of microorganisms, 28 days / number of microorganisms, 2 days: Escherichia coli (EC)
Candida albicans = test: as above; type: cell-based
yeast = test: preservation efficacy test (PET), overview of the effect against yeast; type: cell-based, Candida albicans; settings: PET in a shampoo formulation, result in words on Table 8
Aspergillus brasiliensis = test: preservation efficacy test (PET), European Pharmacopoeia 5.1.3; type: cell-based; settings: for number of microorganisms, 28 days / number of microorganisms, 14 days: Aspergillus brasiliensis (AB)
[2] = 2 days after inoculation, o/w emulsion (Table 53)
[3] = 7 days after inoculation, o/w emulsion (Table 53)
[4] = 14 days after inoculation, o/w emulsion (Table 53)
[5] = 28 days after inoculation, o/w emulsion (Table 53)
[6] = 7 days after inoculation, substance at given % in test formulation
[7] = 14 days after inoculation, substance at given % in test formulation
[8] = 28 days after inoculation, substance at given % in test formulation
[9] = PET in shampoo, Staphylococcus aureus (SA), 14 days after inoculation
[10] = PET in shampoo, Staphylococcus aureus (SA), 28 days after inoculation
[11] = PET, Staphylococcus aureus (SA), 28 days after inoculation
[12] = PET in shampoo, Candida albicans (CA), 28 days after inoculation
[13] = PET, Staphylococcus aureus (SA), 7 days after inoculation
[14] = PET, Staphylococcus aureus (SA), 14 days after inoculation
[15] = PET, Candida albicans (CA), 28 days after inoculation

- Maximum solubility in water [1]: 50 % by weight
Compound: CCCCC(O)CO (stereo not drawn) [Hydrolite ® 6]

- Maximum solubility in water [1]: 3.6 % by weight
Compound: CCCCC(O)C(C)O (stereo not drawn) [2,3-heptanediol]
- germ count PA, 2 days (Pseudomonas aeruginosa; [2]): 1
- PA germ count, 2 days (Pseudomonas aeruginosa; 2 days after inoculation): 1
- germ count PA, 7 days (Pseudomonas aeruginosa; [3]): 1
- PA germ count, 7 days (Pseudomonas aeruginosa; 7 days after inoculation): 1
- germ count PA, 14 days (Pseudomonas aeruginosa; [4]): 1
- PA germ count, 14 days (Pseudomonas aeruginosa; 14 days after inoculation): 1
- germ count PA, 28 days (Pseudomonas aeruginosa; [5]): 1
- PA germ count, 28 days (Pseudomonas aeruginosa; 28 days after inoculation): 1
- germ count SA, 7 days (Staphylococcus aureus; [3]): 790.000
- SA germ count, 7 days (Staphylococcus aureus; [6]): 790.000
- germ count SA, 14 days (Staphylococcus aureus; [4]): 55
- SA germ count, 14 days (Staphylococcus aureus; [7]): 55
- germ count SA, 28 days (Staphylococcus aureus; [5]): 1
- SA germ count, 28 days (Staphylococcus aureus; [8]): 1
- number of microorganisms, 14 days (Staphylococcus aureus; [9]): 1
- number of microorganisms, 28 days (Staphylococcus aureus; [10]): 1
- number of microorganisms, 28 days (Staphylococcus aureus; [11]): 1
- germ count EC, 2 days (Escherichia coli; [2]): 170.000
- EC germ count, 2 days (Escherichia coli; 2 days after inoculation, substance at given % in test formulation): 170.000
- germ count EC, 7 days (Escherichia coli; [3]): 1.600
- EC germ count, 7 days (Escherichia coli; [6]): 1.600
- germ count EC, 14 days (Escherichia coli; [4]): 82
- EC germ count, 14 days (Escherichia coli; [7]): 82
- germ count EC, 28 days (Escherichia coli; [5]): 1
- EC germ count, 28 days (Escherichia coli; [8]): 1
- number of microorganisms, 7 days (Escherichia coli; PET in shampoo, 7 days after inoculation, listed as 0,4% 2,3 Heptandiol): 100.000
- number of microorganisms, 14 days (Escherichia coli; PET in shampoo, 14 days after inoculation, listed as 0,4% 2,3 Heptandiol): 75.000
- number of microorganisms, 28 days (Escherichia coli; PET in shampoo, 28 days after inoculation, listed as 0,4% 2,3 Heptandiol): 380.000
- number of microorganisms, 28 days (Escherichia coli; PET, 28 days after inoculation): 1
- germ count CA, 28 days (Candida albicans; [5]): 370.000
- CA germ count, 28 days (Candida albicans; [8]): 370.000
- number of microorganisms, 28 days (Candida albicans; [12]): 1
- antimicrobial efficacy against yeast (yeast): antimicrobial efficacy

- Maximum solubility in water [1]: 0.5 % by weight
Compound: CCCCCCC(O)CO (stereo not drawn) [Hydrolite ® 8]

- Maximum solubility in water [1]: 0.1 % by weight
Compound: CCCCCCCC(O)CO (stereo not drawn) [1,2-Nonanediol]
- number of microorganisms, 2 days (Staphylococcus aureus; PET, Staphylococcus aureus (SA), 2 days after inoculation): 2.300
- number of microorganisms, 7 days (Staphylococcus aureus; [13]): 1
- number of microorganisms, 14 days (Staphylococcus aureus; [14]): 1
- number of microorganisms, 28 days (Staphylococcus aureus; [11]): 1
- number of microorganisms, 2 days (Escherichia coli; PET, 2 days after inoculation): 6.700
- number of microorganisms, 7 days (Escherichia coli; PET, 7 days after inoculation): 1
- number of microorganisms, 14 days (Escherichia coli; PET, 14 days after inoculation): 1
- number of microorganisms, 28 days (Escherichia coli; PET, 28 days after inoculation): 1
- number of microorganisms, 7 days (Candida albicans; PET, Candida albicans (CA), 7 days after inoculation): 120.000
- number of microorganisms, 14 days (Candida albicans; PET, Candida albicans (CA), 14 days after inoculation): 890
- number of microorganisms, 28 days (Candida albicans; [15]): 1
- number of microorganisms, 28 days (Aspergillus brasiliensis; PET, 28 days after inoculation): 900.000

- Maximum solubility in water [1]: 0.3 % by weight
Compound: CCCCCCC(O)C(C)O (stereo not drawn) [2,3-nonanediol]
- number of microorganisms, 14 days (Staphylococcus aureus; [9]): 1
- number of microorganisms, 28 days (Staphylococcus aureus; [10]): 1
- number of microorganisms, 7 days (Staphylococcus aureus; [13]): 66.000
- number of microorganisms, 14 days (Staphylococcus aureus; [14]): 1
- number of microorganisms, 28 days (Staphylococcus aureus; [11]): 1
- number of microorganisms, 2 days (Escherichia coli; PET, 2 days after inoculation): 810.000
- number of microorganisms, 7 days (Escherichia coli; PET, 7 days after inoculation): 27.000
- number of microorganisms, 14 days (Escherichia coli; PET, 14 days after inoculation): 1.100
- number of microorganisms, 28 days (Escherichia coli; PET, 28 days after inoculation): 1
- number of microorganisms, 28 days (Candida albicans; [12]): 1
- number of microorganisms, 28 days (Candida albicans; [15]): 970.000
- number of microorganisms, 14 days (Aspergillus brasiliensis; PET in shampoo, 14 days after inoculation, listed as 0,1% 2,3 Nonanediol): 680.000
- number of microorganisms, 28 days (Aspergillus brasiliensis; PET in shampoo, 28 days after inoculation, listed as 0,1% 2,3 Nonanediol): 530.000
- number of microorganisms, 14 days (Aspergillus brasiliensis; PET, 14 days after inoculation): 890.000
- antimicrobial efficacy against yeast (yeast): antimicrobial efficacy

- Maximum solubility in water [1]: 50 % by weight
Compound: CCCC(O)CO (stereo not drawn) [Hydrolite ® 5 green]

- Maximum solubility in water [1]: 1.5 % by weight
Compound: CCCCCC(O)C(C)O (stereo not drawn) [2,3-octanediol]
- PA germ count, 2 days (Pseudomonas aeruginosa; 2 days after inoculation): 1
- PA germ count, 7 days (Pseudomonas aeruginosa; 7 days after inoculation): 1
- PA germ count, 14 days (Pseudomonas aeruginosa; 14 days after inoculation): 1
- PA germ count, 28 days (Pseudomonas aeruginosa; 28 days after inoculation): 1
- count at 2 days (Pseudomonas aeruginosa; PA, 2 days after inoculation, use concentration in label): 1
- count at 7 days (Pseudomonas aeruginosa; PA, 7 days after inoculation, use concentration in label): 1
- count at 14 days (Pseudomonas aeruginosa; PA, 14 days after inoculation, use concentration in label): 1
- count at 28 days (Pseudomonas aeruginosa; PA, 28 days after inoculation, use concentration in label): 1
- SA germ count, 14 days (Staphylococcus aureus; [7]): 1
- SA germ count, 28 days (Staphylococcus aureus; [8]): 1
- number of microorganisms, 7 days (Staphylococcus aureus; PET in shampoo, Staphylococcus aureus (SA), 7 days after inoculation): 1
- number of microorganisms, 14 days (Staphylococcus aureus; [9]): 1
- number of microorganisms, 28 days (Staphylococcus aureus; [10]): 1
- number of microorganisms, 7 days (Staphylococcus aureus; [13]): 84.000
- number of microorganisms, 14 days (Staphylococcus aureus; [14]): 1
- number of microorganisms, 28 days (Staphylococcus aureus; [11]): 1
- count at 2 days (Staphylococcus aureus; SA, 2 days after inoculation, use concentration in label): 520.000
- count at 7 days (Staphylococcus aureus; SA, 7 days after inoculation, use concentration in label): 9.300
- count at 14 days (Staphylococcus aureus; SA, 14 days after inoculation, use concentration in label): 1
- count at 28 days (Staphylococcus aureus; SA, 28 days after inoculation, use concentration in label): 1
- count at 2 days (Escherichia coli; EC, 2 days after inoculation, use concentration in label): 130.000
- count at 7 days (Escherichia coli; EC, 7 days after inoculation, use concentration in label): 19.000
- count at 14 days (Escherichia coli; EC, 14 days after inoculation, use concentration in label): 290
- count at 28 days (Escherichia coli; EC, 28 days after inoculation, use concentration in label): 18
- number of microorganisms, 28 days (Escherichia coli; PET in shampoo, 28 days after inoculation, listed as 0,4% 2,3 Octanediol): 600.000
- number of microorganisms, 2 days (Escherichia coli; PET, 2 days after inoculation): 48.000
- number of microorganisms, 7 days (Escherichia coli; PET, 7 days after inoculation): 290
- number of microorganisms, 14 days (Escherichia coli; PET, 14 days after inoculation): 1
- number of microorganisms, 28 days (Escherichia coli; PET, 28 days after inoculation): 1
- count at 2 days (Candida albicans; CA, 2 days after inoculation, use concentration in label): 660.000
- count at 7 days (Candida albicans; CA, 7 days after inoculation, use concentration in label): 210.000
- count at 14 days (Candida albicans; CA, 14 days after inoculation, use concentration in label): 120.000
- count at 28 days (Candida albicans; CA, 28 days after inoculation, use concentration in label): 11.000
- number of microorganisms, 28 days (Candida albicans; [12]): 1
- number of microorganisms, 28 days (Candida albicans; [15]): 390.000
- count at 2 days (Aspergillus brasiliensis; AB, 2 days after inoculation, use concentration in label): 940.000
- count at 7 days (Aspergillus brasiliensis; AB, 7 days after inoculation, use concentration in label): 660.000
- count at 14 days (Aspergillus brasiliensis; AB, 14 days after inoculation, use concentration in label): 820.000
- count at 28 days (Aspergillus brasiliensis; AB, 28 days after inoculation, use concentration in label): 560.000
- number of microorganisms, 14 days (Aspergillus brasiliensis; PET in shampoo, 14 days after inoculation, listed as 0,1% 2,3 Octanediol): 250.000
- antimicrobial efficacy against yeast (yeast): antimicrobial efficacy
